Measured values as given in publication PMC5909127, “Optimization of a “bump-and-hole” approach to allele-selective BET bromodomain inhibition” (Chemical Science, 2018).

Experiments:
BRD2 BD1 WT [1] = biological target: T1, BRD2 BD1 WT (Homo sapiens, UniProt P25440); assay: ITC; type: binding
BRD3 BD2 WT [2] = biological target: T2, BRD3 BD2 WT (Homo sapiens, UniProt Q15059); assay: ITC; type: binding
BRD3 BD1 WT [3] = biological target: T3, BRD3 BD1 WT (Homo sapiens, UniProt Q15059); assay: ITC; type: binding
BRD4 BD2 L/V [4] = biological target: T4, BRD4 BD2 L/V (Homo sapiens, UniProt O60885, L387V); assay: ITC; type: binding
Intrinsic Clearance = settings: mouse liver microsomes
BRDT BD1 WT = BRDT BD1 WT (Homo sapiens, UniProt Q58F21); assay: competitive AlphaLISA; type: binding
BRD3 BD2 L/V [5] = biological target: T5, BRD3 BD2 L/V (Homo sapiens, UniProt Q15059, L345V); assay: competitive AlphaLISA; type: binding
BRD4 BD1 WT [6] = biological target: T6, BRD4 BD1 WT (Homo sapiens, UniProt O60885); assay: competitive AlphaLISA; type: binding
[7] = system: L/V BET bromodomains (BD1 and BD2 of BRD2, BRD3 and BRD4); assay: competitive AlphaLISA (Bio-JQ1 displacement); type: binding, human; settings: L/V minus WT
BRD3 BD1 WT [8] = biological target: T3, BRD3 BD1 WT; assay: competitive AlphaLISA; type: binding
BRD2 BD1 L/V [9] = biological target: T7, BRD2 BD1 L/V (Homo sapiens, UniProt P25440, L110V); assay: competitive AlphaLISA; type: binding
BRD2 BD2 WT [10] = biological target: T8, BRD2 BD2 WT (Homo sapiens, UniProt P25440); assay: ITC; type: binding
BRD2 BD2 WT [11] = biological target: T8, BRD2 BD2 WT; assay: competitive AlphaLISA; type: binding
BRD4 BD1 WT [12] = biological target: T6, BRD4 BD1 WT; assay: ITC; type: binding
BRD3 BD1 L/V [13] = biological target: T9, BRD3 BD1 L/V (Homo sapiens, UniProt Q15059, L70V); assay: ITC; type: binding
[14] = biological target: WT BET bromodomains (BD1 and BD2 of BRD2, BRD3 and BRD4); assay: competitive AlphaLISA (Bio-JQ1 displacement); type: binding, human; settings: mean and SD of all somatic bromodomains; active enantiomer concentration
[15] = system: L/V somatic BET bromodomains; assay: ITC; settings: L/V minus WT
BRD4 BD1 L/V [16] = biological target: T10, BRD4 BD1 L/V (Homo sapiens, UniProt O60885, L94V); assay: ITC; type: binding; settings: for Kd: Kd BRD4 BD1 L/V
BRD4 BD1 L/V [17] = biological target: T10, BRD4 BD1 L/V; assay: competitive AlphaLISA; type: binding
BRD3 BD2 L/V [18] = biological target: T5, BRD3 BD2 L/V; assay: ITC; type: binding
Plasma Half-life = settings: BALB/c, mouse, pH 7.4
BRD4 BD2 L/V [19] = biological target: T4, BRD4 BD2 L/V; assay: competitive AlphaLISA; type: binding
BRD2 BD2 L/V [20] = biological target: T11, BRD2 BD2 L/V (Homo sapiens, UniProt P25440, L383V); assay: ITC; type: binding
in vitro = settings: PAMPA, pH 7.4
BRD3 BD1 L/V [21] = biological target: T9, BRD3 BD1 L/V; assay: competitive AlphaLISA; type: binding
BRD2 BD1 WT [22] = biological target: T1, BRD2 BD1 WT; assay: competitive AlphaLISA; type: binding
BRDT BD1 L/V = BRDT BD1 L/V (Homo sapiens, UniProt Q58F21, L63V); assay: competitive AlphaLISA; type: binding
[23] = biological target: WT somatic BET bromodomains; assay: ITC; settings: mean and SD of all somatic bromodomains
BRD3 BD2 WT [24] = biological target: T2, BRD3 BD2 WT; assay: competitive AlphaLISA; type: binding
BRD2 BD2 L/V [25] = biological target: T11, BRD2 BD2 L/V; assay: competitive AlphaLISA; type: binding
BRD2 BD1 L/V [26] = biological target: T7, BRD2 BD1 L/V; assay: ITC; type: binding
BRD4 BD2 WT [27] = biological target: T12, BRD4 BD2 WT (Homo sapiens, UniProt O60885); assay: ITC; type: binding
BRD4 BD2 WT [28] = biological target: T12, BRD4 BD2 WT; assay: competitive AlphaLISA; type: binding
[29] = system: GFP-BRD4 L/V constructs with NF-κB-RE/luc2P reporter in HEK293T cells; assay: NF-κB luciferase assay; type: cell-based, human; settings: 1 µM, inhibiting either individual BD of BRD4
Protocol: To provide additional functional insights into the individual roles of BD1 vs. BD2 beyond chromatin binding, a luciferase assay was developed to monitor the expression of NF-κB target genes, inspired by work of Zou et al.[45] […] This luciferase induction was maintained with L/V mutations (but not L/A), consistent again with more WT-like functionality of L/V compared to L/A (Fig. 9A).
12 – NF-κB Luciferase Assay
Luciferase experiments were performed in human HEK293T cells seeded in a 24-well plate at 100 000 cells in […]
pBABE NF-κB-RE/luc2P reporter plasmid. Cells were transfected using Lipofectamine™ LTX (Invitrogen) with PLUS™ reagent, with each well receiving 0.5 µg of each plasmid, 2.5 µl LTX and 0.5 µl PLUS reagent. The next day cells were treated with compounds, giving a final concentration of 1 µM compound and 0.01% DMSO. 6 hours later cells were washed with PBS, lysed with passive lysis buffer (Promega) and stored at -20°C.
Luciferase activity was measured suing the Promega luciferase assay. In a black 384-well plate 3µl of clarified lysate was mixed with 15µl luciferase assay reagent and after 15 minutes luminescence was measured in a Pherastar FS. […]
NMR spectra were recorded on a Bruker 500 Ultrashield or a Bruker Ascend 400. […] High Resolution Mass Spectra (HRMS) were recorded on a Bruker micrOTOF. […]

T2 sequence (Q15059 306-416): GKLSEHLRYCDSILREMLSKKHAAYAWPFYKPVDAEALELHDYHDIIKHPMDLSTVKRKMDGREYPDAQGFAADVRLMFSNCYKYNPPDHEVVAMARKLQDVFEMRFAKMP
T8 sequence (P25440 344-455): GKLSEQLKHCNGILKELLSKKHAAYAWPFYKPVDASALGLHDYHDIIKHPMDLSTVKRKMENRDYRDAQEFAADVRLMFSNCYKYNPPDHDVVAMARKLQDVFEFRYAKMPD
T3 sequence (Q15059 24-144): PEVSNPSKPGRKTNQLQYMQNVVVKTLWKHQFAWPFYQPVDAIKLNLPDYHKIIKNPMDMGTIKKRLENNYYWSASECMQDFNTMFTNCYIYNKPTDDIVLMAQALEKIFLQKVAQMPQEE
T5 sequence (Q15059 306-416 L345V limits assumed): as the sequence (Q15059 306-416) above, with L40V counted along it
T1 sequence (P25440 71-176): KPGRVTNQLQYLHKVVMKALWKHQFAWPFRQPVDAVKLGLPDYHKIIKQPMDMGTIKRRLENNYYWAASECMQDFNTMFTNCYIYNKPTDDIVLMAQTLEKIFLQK
T7 sequence (P25440 71-176 L110V limits assumed): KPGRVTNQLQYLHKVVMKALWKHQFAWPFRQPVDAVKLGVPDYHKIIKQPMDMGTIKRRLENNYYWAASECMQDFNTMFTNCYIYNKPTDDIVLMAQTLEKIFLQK
T9 sequence (Q15059 24-144 L70V limits assumed): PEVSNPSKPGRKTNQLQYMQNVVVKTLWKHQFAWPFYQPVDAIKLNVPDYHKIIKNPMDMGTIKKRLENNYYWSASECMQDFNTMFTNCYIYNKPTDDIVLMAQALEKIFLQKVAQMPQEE
T11 sequence (P25440 344-455 L383V): as the sequence (P25440 344-455) above, with L40V counted along it

C=CC[C@@H](C(=O)OC)[C@@H]1N=C(c2ccc(Cl)cc2)c2cc(OC)ccc2-n2c(C)nnc21 (racemic) [Compound 5, (+-)methyl (R)-2-((S)-6-(4-chlorophenyl)-8-methoxy-1-methyl-4H-benzo[f][1,2,4]triazolo[4,3-a][1,4]diazepin-4-yl)pent-4-enoate]
Kd (BRD2 BD1 WT [1]): 8.4 µM | ΔH BRD2 BD1 WT (BRD2 BD1 WT [1]; ITC): -4.0 kcal/mol | N BRD2 BD1 WT (BRD2 BD1 WT [1]; ITC stoichiometry): 1.0 | Kd (BRD3 BD2 WT [2]): 23 µM | ΔH BRD3 BD2 WT (BRD3 BD2 WT [2]; ITC): -3.7 kcal/mol | Kd (BRD3 BD1 WT [3]): 1500 nM | ΔH BRD3 BD1 WT (BRD3 BD1 WT [3]; ITC): -2.3 kcal/mol | N BRD3 BD1 WT (BRD3 BD1 WT [3]; ITC stoichiometry): 0.85 | Kd (BRD4 BD2 L/V [4]): 170 nM | ΔH BRD4 BD2 L/V (BRD4 BD2 L/V [4]; ITC): -6.4 kcal/mol | CL int (Intrinsic Clearance): 6.7 ml min^–1 g^–1 | IC50 (BRDT BD1 WT): 20 µM | IC50 (BRD3 BD2 L/V [5]): 126 nM | IC50 (BRD4 BD1 WT [6]; AlphaLISA pIC50 Value BRD4 BD1 WT): 7.94 µM | AlphaLISA pIC50 ± SD Δ [7]: 1.5 ± 0.3 | IC50 (BRD3 BD1 WT [8]): 3.98 µM | IC50 (BRD2 BD1 L/V [9]): 1000 nM | Kd (BRD2 BD2 WT [10]): 5.8 µM | ΔH BRD2 BD2 WT (BRD2 BD2 WT [10]; ITC): -2.3 kcal/mol | N BRD2 BD2 WT (BRD2 BD2 WT [10]; ITC stoichiometry): 0.75 | IC50 (BRD2 BD2 WT [11]): 10 µM | Kd (BRD4 BD1 WT [12]): 9.7 µM | ΔH BRD4 BD1 WT (BRD4 BD1 WT [12]; ITC): -3.5 kcal/mol | N BRD4 BD1 WT (BRD4 BD1 WT [12]; ITC stoichiometry): 1.10 | Kd (BRD3 BD1 L/V [13]): 270 nM | ΔH BRD3 BD1 L/V (BRD3 BD1 L/V [13]; ITC): -11.3 kcal/mol | AlphaLISA pIC50 ± SD WT [14]: 5.1 ± 0.1 | ITC pKd ± SD Δ [15]: 1.5 ± 0.5 | ΔH BRD4 BD1 L/V (BRD4 BD1 L/V [16]; ITC): -7.4 kcal/mol | Kd (BRD4 BD1 L/V [16]; ITC, 30°C): 180 nM | IC50 (BRD4 BD1 L/V [17]; AlphaLISA pIC50 Value BRD4 BD1 L/V): 316 nM | Kd (BRD3 BD2 L/V [18]): 310 nM | ΔH BRD3 BD2 L/V (BRD3 BD2 L/V [18]; ITC): -8.5 kcal/mol | half-life at 50 µM (Plasma Half-life): > 180 min | IC50 (BRD4 BD2 L/V [19]): 251 nM | Kd (BRD2 BD2 L/V [20]): 240 nM | ΔH BRD2 BD2 L/V (BRD2 BD2 L/V [20]; ITC): -5.9 kcal/mol | Papp (in vitro): 12.7 ×10⁻⁶ cm/s | IC50 (BRD3 BD1 L/V [21]): 126 nM | IC50 (BRD2 BD1 WT [22]): 10 µM | IC50 (BRDT BD1 L/V): 2000 nM | ITC pKd ± SD WT [23]: 5.1 ± 0.4 | IC50 (BRD3 BD2 WT [24]): 10 µM | IC50 (BRD2 BD2 L/V [25]): 158 nM | Kd (BRD2 BD1 L/V [26]): 470 nM | ΔH BRD2 BD1 L/V (BRD2 BD1 L/V [26]; ITC): -10.3 kcal/mol | ΔH BRD4 BD2 WT (BRD4 BD2 WT [27]; ITC): -2.2 kcal/mol | N BRD4 BD2 WT (BRD4 BD2 WT [27]; ITC stoichiometry): 0.98 | IC50 (BRD4 BD2 WT [28]): 10 µM

CC[C@@H](C(=O)OC)[C@@H]1N=C(c2ccc(Cl)cc2)c2ccc(OC)cc2-n2c(C)nnc21 (relative stereo) [(2R,3S)-8]
IC50 (BRD4 BD1 WT [6]; pIC50 BRD4 BD1 WT, separated enantiomers test, total compound concentration): 79.4 µM | Kd (BRD4 BD1 WT [12]): > 60 µM | effect on NF-κB signalling [29]: strongly impacted on NF-κB signalling | N BRD4 BD1 L/V (BRD4 BD1 L/V [16]; ITC stoichiometry, total compound concentration): 0.85 ±0.01 | ΔH BRD4 BD1 L/V (BRD4 BD1 L/V [16]; ITC, total compound concentration): -6.5 ± 0.1 kcal/mol | Kd (BRD4 BD1 L/V [16]; ITC of separated enantiomers and racemates, total compound concentration): 440 ± 50 nM | ΔpIC50 BRD4 BD1 (BRD4 BD1 L/V [17]; L/V minus WT, total compound concentration): 1.8 | IC50 (BRD4 BD1 L/V [17]; pIC50 BRD4 BD1 L/V, separated enantiomers test, total compound concentration): 1260 nM
